The test deals with HIV-1. The test can be described thus: microbe, parasite or virus in culture. The class given is cell-based, HIV-1 (H9IIIB or NL4-3 virus). As to the method: HIV-1 replication was monitored using MT4-gag-GFP clone D3 (hereafter designate MT4-GFP), which are MT-4 cells modified to harbor a GFP reporter gene, the expression of which is dependent on the HIV-1 expressed proteins tat and rev. Productive infection of an MT4-GFP cell with HIV-1 results in GFP expression approximately 24 h post-infection.
MT4-GFP cells were maintained at 37° C./5% CO2/90% relative humidity in RPMI 1640 supplemented with 10% fetal bovine serum, 100 U/ml penicillin/streptomycin, and 400 μg/ml G418 to maintain the reporter gene. For infections, MT4-GFP cells were placed in the same medium lacking G418 and infected overnight with H9IIIB or NL4-3 virus at an approximate multiplicity of infection of 0.01 in the same incubation conditions. Cells were then washed and resuspended in either RPMI 1640 containing no serum at 1.6×10^5 cells/mL (serum free conditions), 10% normal human serum at 1.6×10^5 cells/mL (10% NHS conditions) or in 100% normal human serum at 2×10^5 cells/mL (100% NHS conditions). Compound plates were prepared by dispensing compounds taken up in DMSO into wells of 384 well poly D lysine-coated plates (0.2 μl/well) using an ECHO acoustic dispenser. Each compound was tested in a 10 point serial 3-fold dilution (typical final concentrations: 4.2 μM-0.21 nM). Controls included no inhibitor (DMSO only) and a combination of three antiviral agents (efavirenz, indinavir, and the integrase strand transfer inhibitor L-002254051 at final concentrations of 4 μM each). Cells were added (50 μL/well) to compound plates and the infected cells were maintained at 37° C./5% CO2/90% relative humidity.
Infected cells were quantified at two time points, ˜48 h and ˜72 h post-infection, by counting the number of green cells in each well using an Acumen eX3 scanner. […] Inhibition of R0 is calculated for each well, and IC50 value was determined using non-linear 4-parameter curve fitting.

The mark [1] stands for this setting: read-out: WILD TYPE CELL ASSAY Viking IP (0% NHS).
[2] abbreviates: read-out: WILD TYPE CELL ASSAY Viking IP (100% NHS).
Where [3] appears, read: Human immunodeficiency virus 1, read-out: WILD TYPE CELL ASSAY Viking IP (0% NHS) (nM).
Setting [4] is: Human immunodeficiency virus 1, read-out: WILD TYPE CELL ASSAY Viking IP (100% NHS) (nM).

Read-outs that look alike come from different tables or passages of the source. Bounds are passed on as bounds.

Consider `CCN1C[C@@H]2CC(N3CCCC3)c3c(C(=O)NCc4ccc(F)cc4F)c(=O)c(O)c(n32)C1=O` (single isomer, unassigned) [Compound 33], for which the IC50 was found to be 9 nM under setting [1] and 32 nM under setting [2].

Consider `CCN1C[C@@H]2CC(N3CCCC3)c3c(C(=O)NCc4ccc(F)cc4F)c(=O)c(O)c(n32)C1=O` (single isomer, unassigned) [Compound 34], for which the IC50 runs as follows: under setting [1], 55 nM; under setting [2], 487 nM.

For the molecule `CCN1C[C@H]2CC(N3CCCC3)c3c(C(=O)NCc4ccc(F)cc4F)c(=O)c(O)c(n32)C1=O` (single isomer, unassigned) [Compound 35], the IC50 is 26 nM under setting [1] and 62 nM under setting [2].

For `CCN1C[C@H]2CC(N3CCCC3)c3c(C(=O)NCc4ccc(F)cc4F)c(=O)c(O)c(n32)C1=O` (single isomer, unassigned) [Compound 36], the IC50 reads like this: under setting [1], 6 nM; under setting [2], 1190 nM.

Take `CCN1C[C@@H]2C[C@@H](N3CCCC3)c3c(C(=O)NCc4cccc(F)c4F)c(=O)c(O)c(n32)C1=O` (single isomer, unassigned) [Compound 43]: the IC50 was 10 nM under setting [3] and 42 nM under setting [4].

Consider `CCN1C[C@H]2C[C@H](NC(C)=O)c3c(C(=O)NCc4ccc(F)cc4F)c(=O)c(O)c(n32)C1=O` (single isomer, unassigned) [Compound 54], for which the IC50 by setting is: under setting [3], 6 nM; under setting [4], 38 nM.

As to `CCNC1CC2CN(CCOC)C(=O)c3c(O)c(=O)c(C(=O)NCc4ccc(F)cc4F)c1n32` (single isomer, unassigned) [Compound 65], the IC50 by setting is: under setting [3], 12 nM; under setting [2], 42 nM.

For `CCNC1CC2CN(CCOC)C(=O)c3c(O)c(=O)c(C(=O)NCc4ccc(F)cc4F)c1n32` (single isomer, unassigned) [Compound 66], the IC50 came to 12 nM under setting [1] and 180 nM under setting [2].

As to `CCNC1CC2CN(CCOC)C(=O)c3c(O)c(=O)c(C(=O)NCc4ccc(F)cc4F)c1n32` (single isomer, unassigned) [Compound 67], the IC50 reads like this: under setting [1], 7 nM; under setting [2], 31 nM.

Consider `CCCN1CC2CC(NS(C)(=O)=O)c3c(C(=O)NCc4ccc(F)cc4F)c(=O)c(O)c(n32)C1=O` (single isomer, unassigned) [Compound 68], for which the IC50 by setting is: under setting [1], 3 nM; under setting [2], 26 nM.

Consider `CCCN1CC2CC(NS(C)(=O)=O)c3c(C(=O)NCc4ccc(F)cc4F)c(=O)c(O)c(n32)C1=O` (single isomer, unassigned) [Compound 69], for which the IC50 under setting [1] turned out to be 7 nM and the IC50 under setting [2] came to 4560 nM.

In the case of `CCCN1CC2CC(NS(C)(=O)=O)c3c(C(=O)NCc4ccc(F)cc4F)c(=O)c(O)c(n32)C1=O` (single isomer, unassigned) [Compound 70], the IC50 came to 20 nM under setting [1] and 1840 nM under setting [2].

For `CCCN1CC2CC(NS(C)(=O)=O)c3c(C(=O)NCc4ccc(F)cc4F)c(=O)c(O)c(n32)C1=O` (single isomer, unassigned) [Compound 71], the IC50 came out at 3 nM under setting [1] and 17 nM under setting [2].

Consider `CCN1C[C@@H]2C[C@@H](N)c3c(C(=O)NCc4ccc(F)cc4F)c(=O)c(O)c(n32)C1=O` [Compound 1], for which the IC50 runs as follows: under setting [1], 2 nM; under setting [2], 19 nM.

Turning to `CCN1C[C@@H]2C[C@H](N)c3c(C(=O)NCc4ccc(F)cc4F)c(=O)c(O)c(n32)C1=O` [Compound 2], the IC50 is, setting by setting: under setting [1], 12 nM; under setting [2], 374 nM.

`CCN1C[C@H]2C[C@H](N)c3c(C(=O)NCc4ccc(F)cc4F)c(=O)c(O)c(n32)C1=O` [Compound 3]: the IC50 worked out at 10 nM under setting [3] and 4500 nM under setting [4].

For the molecule `CCN1C[C@H]2C[C@@H](N)c3c(C(=O)NCc4ccc(F)cc4F)c(=O)c(O)c(n32)C1=O` [Compound 4], the IC50 is, setting by setting: under setting [3], 2 nM; under setting [4], 158 nM.

With `CCN1C[C@@H]2C[C@@H](NC)c3c(C(=O)NCc4ccc(F)cc4F)c(=O)c(O)c(n32)C1=O` [Compound 5], the IC50 by setting is: under setting [3], 2 nM; under setting [4], 17 nM.

Turning to `CCN1C[C@@H]2C[C@H](NC)c3c(C(=O)NCc4ccc(F)cc4F)c(=O)c(O)c(n32)C1=O` [Compound 6], the IC50 is 5 nM under setting [3] and 245 nM under setting [4].

As to `CCN1C[C@H]2C[C@H](NC)c3c(C(=O)NCc4ccc(F)cc4F)c(=O)c(O)c(n32)C1=O` [Compound 7], the IC50 under setting [3] came out at 2 nM and the IC50 under setting [4] came to 3420 nM.

Regarding `CCN1C[C@H]2C[C@@H](NC)c3c(C(=O)NCc4ccc(F)cc4F)c(=O)c(O)c(n32)C1=O` [Compound 8], the IC50 under setting [3] is 2 nM and the IC50 under setting [4] turned out to be 33 nM.

On to `CCN[C@@H]1C[C@H]2CN(CC)C(=O)c3c(O)c(=O)c(C(=O)NCc4ccc(F)cc4F)c1n32` [Compound 9], for which the IC50 is 1 nM under setting [3] and 11 nM under setting [4].

Take `CCN[C@H]1C[C@H]2CN(CC)C(=O)c3c(O)c(=O)c(C(=O)NCc4ccc(F)cc4F)c1n32` [Compound 10]: the IC50 by setting is: under setting [3], 1 nM; under setting [4], 170 nM.

As to `CCN[C@H]1C[C@@H]2CN(CC)C(=O)c3c(O)c(=O)c(C(=O)NCc4ccc(F)cc4F)c1n32` [Compound 11], the IC50 is 2 nM under setting [3] and 1100 nM under setting [4].

In the case of `CCN[C@@H]1C[C@@H]2CN(CC)C(=O)c3c(O)c(=O)c(C(=O)NCc4ccc(F)cc4F)c1n32` [Compound 12], the IC50 reads like this: under setting [3], 10 nM; under setting [4], 32 nM.

As for `CCN[C@H]1C[C@@H]2CN(CC)C(=O)c3c(O)c(=O)c(C(=O)NCc4c(F)cc(F)cc4F)c1n32` [Compound 13], the IC50 under setting [3] was 7 nM and the IC50 under setting [4] was determined as 4020 nM.

Regarding `CCN[C@@H]1C[C@@H]2CN(CC)C(=O)c3c(O)c(=O)c(C(=O)NCc4c(F)cc(F)cc4F)c1n32` [Compound 14], the IC50 is, setting by setting: under setting [3], 6 nM; under setting [4], 47 nM.

In the case of `CCN[C@H]1C[C@@H]2CN(CC)C(=O)c3c(O)c(=O)c(C(=O)NCc4ccc(F)c(Cl)c4F)c1n32` [Compound 15], the IC50 under setting [3] is 13 nM and the IC50 under setting [4] is over 8400 nM.

As for `CCN[C@@H]1C[C@@H]2CN(CC)C(=O)c3c(O)c(=O)c(C(=O)NCc4ccc(F)c(Cl)c4F)c1n32` [Compound 16], the IC50 runs as follows: under setting [3], over 42000 nM; under setting [4], over 42000 nM.

Consider `CCN[C@H]1C[C@@H]2CN(CC)C(=O)c3c(O)c(=O)c(C(=O)NCc4cccc(F)c4F)c1n32` [Compound 17], for which the IC50 was found to be 14 nM under setting [3] and 1980 nM under setting [4].

As to `CCN[C@@H]1C[C@@H]2CN(CC)C(=O)c3c(O)c(=O)c(C(=O)NCc4cccc(F)c4F)c1n32` [Compound 18], the IC50 under setting [3] was 10 nM and the IC50 under setting [4] is 25 nM.

As to `CCN[C@H]1C[C@@H]2CN(CC)C(=O)c3c(O)c(=O)c(C(=O)NCc4cccc(Cl)c4F)c1n32` [Compound 19], the IC50 by setting is: under setting [3], 10 nM; under setting [4], 10900 nM.

Consider `CCN[C@@H]1C[C@@H]2CN(CC)C(=O)c3c(O)c(=O)c(C(=O)NCc4cccc(Cl)c4F)c1n32` [Compound 20], for which the IC50 reads like this: under setting [3], 5 nM; under setting [4], 28 nM.

As for `CCCN[C@H]1C[C@@H]2CN(CC)C(=O)c3c(O)c(=O)c(C(=O)NCc4ccc(F)cc4F)c1n32` [Compound 21], the IC50 runs as follows: under setting [3], 17 nM; under setting [4], 2290 nM.

Consider `CCCN[C@@H]1C[C@@H]2CN(CC)C(=O)c3c(O)c(=O)c(C(=O)NCc4ccc(F)cc4F)c1n32` [Compound 22], for which the IC50 was 11 nM under setting [3] and 34 nM under setting [4].

Values taken from patent publication US20180099967A1, “FUSED TRICYCLIC HETEROCYCLIC COMPOUNDS AS HIV INTEGRASE INHIBITORS” (MERCK SHARP & DOHME CORP., priority 2015, published 2018).
